Results taken from patent US5866596A, “3,4-diaryloxazolone derivatives, their methods of preparation and their uses in therapeutics” (Laboratories UPSA, priority 1996, dated 1999).
Where two headings read alike, the source gives them in different places.

Columns and labels:
[1] = test system: oedema with carrageenan; assay: Anti-inflammatory activity: test of oedema with carrageenan; type: in vivo; conditions: Rattus norvegicus, 30 mg/kg oral, rats, after 3 hours, n=6 per dose, read-out: Anti-inflammatory activity, % inhibition (volume of the oedema)
Procedure: (§1) The anti-inflammatory activity of the compounds of the Examples has been evaluated according to the method of oedema with carrageenan and the analgesic activity has been evaluated according to the method of arthritis with kaolin.
The anti-inflammatory activity is evaluated in rats by the test of oedema with carrageenan. The product is administered orally at a rate of 2.5 ml/100 g (n=6 animals per dose) 2 hours 30 minutes after a water overload taken orally (2.5 ml/100 g). One hour after administration of the product, the oedema is induced by plantar subcutaneous injection of aqueous 2% carrageenan solution. The percentage inhibition of the volume of the oedema is calculated after 3 hours by measuring the volume of the paw with the aid of a mercury plethysmometer.

[2] = test system: arthritis with kaolin (pain response); assay: Analgesic activity: test of arthritis with kaolin; type: in vivo; conditions: 30 mg/kg oral, rats, 5 hours 30 minutes after administration, n=10 per dose
Procedure: as §1
The analgesic activity is evaluated in rats by the test of arthritis with kaolin. Thirty minutes after intra-articular administration of an aqueous 10% suspension of kaolin, the product is administered orally at a rate of 1 ml/100 g (n=10 animals per dose). The percentage inhibition of the animal's pain response (by rating the way it walks) is calculated 5 hours 30 minutes after administration of the product.

[3] = biological target: T1, COX-2 (purified enzyme from ewe placenta) (Ovis aries, UniProt P79208); assay: Inhibition of COX-2 enzymatic activity (PGE2 by EIA); type: biochemical; conditions: arachidonic acid 4 μM, mean of 4 determinations; for inhibition at 10 µM: 10^-5 M; for inhibition at 0.1 µM: 10^-7 M
T1 construct: purified enzyme from ewe placenta; from tissue; host or cells: ewe placenta
T1 sequence (P79208 17-603): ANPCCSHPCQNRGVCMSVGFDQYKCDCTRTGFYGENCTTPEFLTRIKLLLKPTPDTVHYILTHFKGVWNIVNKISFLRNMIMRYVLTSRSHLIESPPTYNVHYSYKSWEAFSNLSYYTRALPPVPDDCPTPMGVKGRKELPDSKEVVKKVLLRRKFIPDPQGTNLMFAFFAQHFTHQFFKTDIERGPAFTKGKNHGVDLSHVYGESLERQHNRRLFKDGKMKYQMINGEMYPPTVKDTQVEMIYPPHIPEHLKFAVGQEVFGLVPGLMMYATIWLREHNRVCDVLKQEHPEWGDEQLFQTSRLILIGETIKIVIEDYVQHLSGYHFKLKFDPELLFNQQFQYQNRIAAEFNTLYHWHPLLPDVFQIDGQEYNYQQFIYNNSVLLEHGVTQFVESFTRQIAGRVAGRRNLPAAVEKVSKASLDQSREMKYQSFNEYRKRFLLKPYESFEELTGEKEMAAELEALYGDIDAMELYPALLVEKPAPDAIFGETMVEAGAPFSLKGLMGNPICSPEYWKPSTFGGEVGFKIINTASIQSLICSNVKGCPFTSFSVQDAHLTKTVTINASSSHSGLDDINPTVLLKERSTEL
Procedure: (§2) Arachidonic acid (6 μM for COX-1, 4 μM for COX-2) is added to the reaction medium and incubation is carried out for 5 minutes at 25° C. When incubation has ended, the enzymatic reaction is stopped by the addition of 1N HCl and the PGE2 produced is determined by EIA. The results are expressed as the percentage inhibition of the COX-1 and COX-2 enzymatic activities and correspond to mean (±) standard deviations from the average of 4 determinations.

[4] = biological target: T2, COX-1 (purified enzyme from ram seminal vesicles) (Ovis aries, UniProt P05979); assay: Inhibition of COX-1 enzymatic activity (PGE2 by EIA); type: biochemical; conditions: arachidonic acid 6 μM, mean of 4 determinations; for inhibition at 10 µM: 10^-5 M; for inhibition at 0.1 µM: 10^-7 M
T2 construct: purified enzyme from ram seminal vesicles; from tissue; host or cells: ram seminal vesicles
T2 sequence (P05979 25-600): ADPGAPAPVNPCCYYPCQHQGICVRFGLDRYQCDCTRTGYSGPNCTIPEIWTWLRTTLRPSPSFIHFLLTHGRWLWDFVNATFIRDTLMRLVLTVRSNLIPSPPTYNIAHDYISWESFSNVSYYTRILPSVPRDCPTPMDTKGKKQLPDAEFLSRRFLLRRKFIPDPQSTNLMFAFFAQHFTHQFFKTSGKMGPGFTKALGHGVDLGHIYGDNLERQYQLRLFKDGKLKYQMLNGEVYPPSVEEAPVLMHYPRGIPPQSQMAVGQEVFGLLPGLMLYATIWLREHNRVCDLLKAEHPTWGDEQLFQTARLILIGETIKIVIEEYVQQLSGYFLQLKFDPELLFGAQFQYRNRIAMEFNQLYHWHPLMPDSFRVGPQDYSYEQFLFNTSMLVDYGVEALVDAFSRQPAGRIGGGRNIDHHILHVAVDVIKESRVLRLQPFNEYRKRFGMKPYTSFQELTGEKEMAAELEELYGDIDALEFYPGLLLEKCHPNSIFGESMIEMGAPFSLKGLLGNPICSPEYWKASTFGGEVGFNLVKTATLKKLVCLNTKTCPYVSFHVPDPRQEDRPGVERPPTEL
Procedure: as §2

[5] = Gastric tolerance (ulcerogenic dose); set-up: species or system Charles River rats strain CD; conditions: rat, in vivo
Procedure: The gastic tolerance study is carried out in Charles River rats strain CD weighing 110 to 150 g. The animals are placed on a water diet 24 hours before administration of the product or the vehicle alone, via the oral route (1 ml/100 g) (n=6 animals per dose). Six hours after administration,the animals are sacrificed and the stomachs are removed and opened along the greater curvature. The number of haemorrhagic spots and lines per stomach identified macroscopically permits establishing an ulceration index (0: no lesion, 1: 1 to 2 lesions, 2: 3 to 4 lesions, 3: 5 to 8 lesions, 4: 9 to 16 lesions, 5: more than 17 lesions) and estimating the 50% ulcerogenic dose (UD50 =dose expressed in mg/kg inducing 4 to 5 lesions).

SMILES	inhibition in vivo at 30 mg/kg [1] [%]	Analgesic activity, % inhibition (pain response) [2] [%]	inhibition at 10 µM [3] [%]	inhibition at 0.1 µM [3] [%]	inhibition at 10 µM [4] [%]	inhibition at 0.1 µM [4] [%]	TD50 at 6 h ([5]; po) [mg/kg]	TD50 at 6 h ([5]; rats, oral, 6 hours after administration, dose inducing 4 to 5 lesions, read-out: UD50 (confidence limit), 50% ulcerogenic dose) [mg/kg]
CS(=O)(=O)c1ccc(-c2coc(=O)n2-c2ccc(F)cc2)cc1 [Example 4, 3-(4-fluorophenyl)-4-(4-methanesulfonylphenyl)-3H-oxazol-2-one]	53	55	82.7	12	0	0	> 300	–
CS(=O)(=O)c1ccc(-c2coc(=O)n2-c2ccccc2)cc1 [Example 16, 3-phenyl-4-(4-methanesulfonylphenyl)-3H-oxazol-2-one]	45	60	78	16	0	0	–	–
CS(=O)(=O)c1ccc(-c2coc(=O)n2-c2ccc(Cl)cc2)cc1 [Example 17, 3-(4-chlorophenyl)-4-(4-methanesulfonylphenyl)-3H-oxazol-2-one]	32	42	85	11	0	0	–	–
Cc1cccc(-n2c(-c3ccc(S(C)(=O)=O)cc3)coc2=O)c1 [Example 18, 3-(3-methylphenyl)-4-(4-methanesulfonylphenyl)-3H-oxazol-2-one]	18	0	92	14	0	0	–	–
CS(=O)(=O)c1ccc(-c2coc(=O)n2-c2cccc(Cl)c2)cc1 [Example 19, 3-(3-chlorophenyl)-4-(4-methanesulfonylphenyl)-3H-oxazol-2-one]	37	60	87	18	0	0	–	–
CS(=O)(=O)c1ccc(-c2coc(=O)n2-c2ccc(Cl)c(Cl)c2)cc1 [Example 20, 3-(3,4-dichlorophenyl)-4-(4-methanesulfonylphenyl)-3H-oxazol-2-one]	48	75	94	26	0	0	–	–
CS(=O)(=O)c1ccc(-c2coc(=O)n2-c2cccc(F)c2)cc1 [Example 21, 3-(3-fluorophenyl)-4-(4-methanesulfonylphenyl)-3H-oxazol-2-one]	55	–	76	11	0	0	–	–
Cc1ccc(-n2c(-c3ccc(S(C)(=O)=O)cc3)coc2=O)cc1 [Example 22, 3-(4-methylphenyl)-4-(4-methanesulfonylphenyl)-3H-oxazol-2-one]	42	–	88	12	–	–	–	–
COc1ccc2c(c1)c(CC(=O)O)c(C)n2C(=O)c1ccc(Cl)cc1 [indomethacin, reference compound]	–	–	–	–	–	–	–	8.3
